{"source": "patent US6838436B1", "about": "“Inhibitors of proteasomal activity for stimulating bone growth” (Osteoscreen Inc., priority 1998, dated 2005)", "key": {"calvaria": {"tested_on": "calvaria", "experiment": "Calvarial assay of epoxomicin (Example 7), new bone area", "format": "cell-based, mouse", "method": "An assay for bone resorption or bone formation is similar to that described by Gowen M. & Mundy G., J Immunol (1986) 136:2478-82. Briefly, four days after birth, the front and parietal bones of ICR Swiss white mouse pups are removed by microdissection and split along the sagittal suture. In an assay for resorption, the bones are incubated in BGJb medium (Irvine Scientific, Santa Ana, Calif.) plus 0.02% (or lower concentration) β-methylcyclodextrin, wherein the medium also contains test or control substances. The medium used when the assay is conducted to assess bone formation is Fitton and Jackson Modified BGJ Medium (Sigma) supplemented with 6 μg/ml insulin, 6 μg/ml transferrin, 6 ng/ml selenous acid, calcium and phosphate concentrations of 1.25 and 3.0 mM, respectively, and ascorbic acid to a concentration of 100 μg/ml is added every two days. The incubation is conducted at 37° C. in a humidified atmosphere of 5% CO2 and 95% air for 96 hours.\nNew bone formation was determined (using a 10× objective) by measuring the new bone area formed in one field in 3 representative sections of each bone (4 bones per group). Each measurement was carried out ½ field distance from the end of the suture. Both total bone and old bone area were measured. Data were expressed as new bone area in μm^2."}, "hair follicles [1]": {"tested_on": "hair follicles", "experiment": "Topical administration of PSI, hair growth (Examples 13 and 14)", "format": "in vivo, mice", "method": "PSI was prepared as a topical formulation, where the vehicle was 50% propylene glycol, 30% ethanol, 20% deionized water, at 0.1% concentration of PSI. The solution was applied 3 times a day for 5 days. The mice in a treated group were observed as compared to controls similarly treated with vehicle alone.\nWhen the protocol above was repeated using a 0.5% solution of PSI in groups containing 5 mice each, the number of hairs per 0.8 mm^2 was 60 in the treated mice versus about 10 in the control group. The percentage of follicle area in a region of about 0.8 mm was about 30% as an average in the treated group as compared to 15% as an average in the control group.\nIn order to determine the minimal effective dosage of PSI, when used topically, a dose response curve for PSI was prepared. All experiments were preformed according to current good laboratory practice regulations (21CFR58). The mice were divided into 7 groups, 10 mice each, wherein one group was control treated only with vehicle and groups 1-6 with a series of increasing concentrations of PSI in a vehicle comprising 50% propylene glycol, 30% ethanol, 20% deionized water. The concentrations were 0.006%, 0.012%, 0.025%, 0.05%, 0.11% and 0.5%.\nThe mice were anesthetized (50 μl Mouse Cocktail containing 3 ml ketamine, 2 ml small animal rompum, 5 ml NaCl), identified by ear punch code, weighed and the hair on the dorsal side removed by waxing as described in Example 6. After waxing, the animals were photographed. On the following day (day 1), 100 μl of PSI at the above concentrations in vehicle was brushed onto the area of removed hair. A similar application of PSI solution was performed daily for an additional 4 days.\nOn Day 7 mice were anesthetized and a biopsy of the dorsal treatment area taken using a 6 mm dermal punch; the specimens were fixed in 10% buffered formalin and embedded in paraffin wax. Sections were cut using a standard microtome.\nMice were monitored daily for signs of hair growth, and any hair growth was recorded by photography. On day 21 animals were euthanized (75 mg/kg body weight phenobarbital, IP injection), 2 cm hair samples were taken for optical based fiber analysis, and the remaining dorsal treatment area was fixed in 10% buffered formalin for further histological analysis. Analysis included quantification of hair thickness and quantification of mature hair follicles. Results were expressed as the mean=+/−the standard error of the mean. Data were analyzed by repeated measures of analysis of variance followed by the Tukey-Kramer post test P values of <0.05 were considered significant."}, "hair follicles [2]": {"tested_on": "hair follicles", "experiment": "Hair growth without depilation, shaved dorsal trunks (Example 15)", "format": "in vivo, C57 BL/6 mice", "details": "for growth of new hair at the site of drug application: sixteenth day", "method": "To confirm that the responses described above occurred in the absence of depilation and in other strains of mice, PS1 (0.5%) was applied topically once daily for 5 days to eight week old male C57 BL/6 mice in which the dorsal trunks were shaved but not depilated. For this experiment, the hair of 18 C57 BL/6 mice was carefully clipped the hair from the dorsal trunks. Three groups were tested. One group was treated with PS1 (0.5%) applied topically to the shaved area daily. In the second group, PS1 (1 mg/kg body weight/day) was injected locally into the subcutaneous tissue of the shaved area. These two groups were compared with the third group, which was untreated other than the hair on the dorsal trunk was similarly clipped. Blonde hair dye (extra strength bleach powder and 12% hydrogen peroxide in a 1 to 1 w/v ratio) was applied to the dorsal trunks of all mice on the seventh day in order to make it easier to detect new hair growth represented by appearance in the blonded areas of the natural black hair of the mice associated with induction of melanogenesis."}, "hair follicles [3]": {"tested_on": "hair follicles", "experiment": "Effects on subcutaneous tissue of the scalp (Example 10)", "format": "in vivo, ICR mice", "details": "1 mg/kg body weight/day injected daily for 5 days; examined 16 days later", "method": "Effects of PS1 on subcutaneous tissue of the scalp of 6-weeks old ICR mice from longitudinal and transverse sections were determined. PS1 dissolved in 50% propylene glycol, 10% DMSO, and 40% distilled water was injected daily for 5 days (1 mg/kg body weight/day) into the subcutaneous tissue, and the tissue examined histologically 16 days later."}, "proteasomal activity": {"tested_on": "proteasomal activity", "details": "cited from earlier work"}}, "note": "Marks after values point to notes of the source that are not given here. Where a SMILES comes first, the peptide text is derived from it. The star is where a group is joined. Cbz = O=C(OCc1ccccc1)*; OtBu = CC(C)(C)O*"}
{"molecule": "CC[C@H](C)[C@H](NC(=O)[C@H]([C@@H](C)CC)N(C)C(C)=O)C(=O)N[C@H](C(=O)N[C@@H](CC(C)C)C(=O)[C@@]1(C)CO1)[C@@H](C)O", "note": "[Epoxomicin]", "values": [{"measurement": "bone formed compared with control", "setting": "calvaria; concentrations of 5-10 nM", "value": "significantly more bone was formed than in the control"}, {"measurement": "New Bone Area", "setting": "calvaria; dose 0.000625 μM", "value": 2.78, "unit": "mm^2 × 10^−3"}, {"measurement": "New Bone Area", "setting": "calvaria; dose 0.00125 μM", "value": 2.80, "unit": "mm^2 × 10^−3"}, {"measurement": "New Bone Area", "setting": "calvaria; dose 0.0025 μM", "value": 4.04, "unit": "mm^2 × 10^−3"}, {"measurement": "New Bone Area", "setting": "calvaria; dose 0.005 μM", "value": "6.54# mm^2 × 10^−3"}, {"measurement": "New Bone Area", "setting": "calvaria; dose 0.01 μM", "value": "5.74# mm^2 × 10^−3"}]}
{"molecule": "CC[C@H](C)[C@H](NC(=O)OCc1ccccc1)C(=O)N[C@@H](CCC(=O)OC(C)(C)C)C(=O)N[C@@H](C)C(=O)N[C@H](C=O)CC(C)C", "note": "[PSI, N-carbobenzoyl-Ile-Glu-(OtBu)-Ala-Leu-CHO] (Cbz-IE(OtBu)AL-aldehyde)", "values": [{"measurement": "effectiveness on hair growth", "setting": "hair follicles [1]; 0.1% of PSI applied topically 3 times a day for 5 days (additional experiments)", "value": "effective"}, {"measurement": "thickness of hair and hair shaft", "setting": "hair follicles [1]; topical", "value": "thicken both the hair and the hair shaft"}, {"measurement": "percentage of follicle area in a region of about 0.8 mm", "setting": "hair follicles [1]; topical 0.5% solution of PSI, average, control 15%", "value": "about 30%"}, {"measurement": "number of hairs per 0.8 mm^2", "setting": "hair follicles [1]; topical 0.5% solution of PSI, control about 10", "value": 60}, {"measurement": "hair growth relative to controls", "setting": "hair follicles [1]; topical, 0.1% PSI, 3 times a day for 5 days, day 16", "value": "stimulation of hair growth relative to the controls"}, {"measurement": "minimal effective dose", "setting": "hair follicles [1]; topical, applied 1 time a day for 4 days", "value": 0.5, "unit": "%"}, {"measurement": "growth of new hair at the site of drug application", "setting": "hair follicles [2]; 1 mg/kg body weight/day injected locally into the subcutaneous tissue", "value": "more rapid growth of new hair"}, {"measurement": "growth of new hair at the site of drug application", "setting": "hair follicles [2]; 0.5% applied topically once daily for 5 days", "value": "more rapid growth of new hair"}, {"measurement": "diameter of the hair and of the inner and outer root sheath", "setting": "hair follicles [2]; transverse sections of skin, only in the applied areas", "value": "increased both the diameter of the hair and the diameter of the inner and outer root sheath"}, {"measurement": "numbers of hair follicles", "setting": "hair follicles [3]", "value": "numbers of hair follicles increased"}, {"measurement": "size of the follicle diameter and the root sheath diameter", "setting": "hair follicles [3]", "value": "obvious increase in size of the follicle diameter and the root sheath diameter"}]}
{"molecule": "simvastatin", "values": [{"measurement": "effects on proteasomal activity", "setting": "proteasomal activity", "value": "no effects on proteasomal activity"}]}
